Assay results from the OligoGym collection.
After the bases stand the sugars from the 5' end (letter, count) and the backbone: PS all phosphorothioate, else s phosphorothioate and o phosphodiester by linkage. Methylation of C is not given here. e = 2'-O-(2-methoxyethyl) (MOE); l = locked nucleic acid (LNA); k = constrained ethyl (cEt); d = 2'-deoxy (DNA)

Tests used:
APOL1 = conditions: ASO
SNHG14 = conditions: ASO, Human Neuronal Cell

Row | Sequence | target mRNA inhibition (SNHG14; 7.5 µM) [%] | also measured
1 | AACATGAAGTGAGCCT (sugars k4 d9 k3, PS) |  | target mRNA inhibition (APOL1; A431, 0.0625 µM): 20%; target mRNA inhibition (APOL1; A431, 0.25 µM): 49%; target mRNA inhibition (APOL1; A431, 1 µM): 73%
2 | AACGCAATGCTGACTT (sugars k3 d4 k3 e1 d5, PS) |  | target mRNA inhibition (APOL1; A431, 0.0156 µM): 3%; target mRNA inhibition (APOL1; A431, 0.0625 µM): 24%; target mRNA inhibition (APOL1; A431, 0.25 µM): 54%; target mRNA inhibition (APOL1; A431, 1 µM): 80%; target mRNA inhibition (APOL1; A431, 2 µM): 91%
3 | AAGATTGGCTCTGGCT (sugars k2 d4 e4 k2 d4, PS) |  | target mRNA inhibition (APOL1; A431, 2 µM): 55%
4 | AAGCTTTAAACTCAGG (sugars kkkddddkekeddddd, PS) |  | target mRNA inhibition (APOL1; A431, 2 µM): 84%
5 | TTATAGCCATTCTATCT (sugars lldddddddddldldll, PS) | 56 | 
6 | TTATAGCCATTCTATCT (sugars llddlddddddldddll, PS) | 45 | 
7 | TTATAGCCATTCTATCT (sugars lldldddddddldddll, PS) | 59 | 
8 | TTATAGCCATTCTATCT (sugars lldldddddddldldll, PS) | 26 | 
9 | TTATAGCCATTCTATCT (sugars lllddddddddldldll, PS) | 44 | 
10 | TTATTTCCATTTATTTTCA (sugars lddlldddddddldldlll, PS) | 69 | 
11 | TTCAAGAATTCTCTCC (sugars l2 d10 l4, PS) |  | target mRNA inhibition (SNHG14; 0.2 µM): 46%; target mRNA inhibition (SNHG14; 1 µM): 50%
12 | TTCAGCTTTTAACCAGAGTG (sugars l2 d15 l3, PS) | 73 | 
13 | TTCCAGCTTATTTACCT (sugars l3 d12 l2, PS) |  | target mRNA inhibition (SNHG14; 0.2 µM): 41%; target mRNA inhibition (SNHG14; 1 µM): 26%
14 | TTCCATTTATTTCCATTTAT (sugars ldddlddddddddddlldll, PS) | 55 | 
15 | TTCTACTAAACATACAC (sugars l3 d11 l3, PS) |  | target mRNA inhibition (SNHG14; 0.2 µM): 40%; target mRNA inhibition (SNHG14; 1 µM): 49%
16 | TTCTACTATACTTTCCTCT (sugars ldddldddddddddlddll, PS) | 57 | 
17 | TTCTACTATACTTTCCTCT (sugars ldldddddddddlddddll, PS) | 59 | 
18 | TTCTGTATACACCATCC (sugars l1 d3 l1 d10 l2, PS) | 50 | 
19 | TTCTGTATACACCATCC (sugars l1 d12 l4, PS) | 51 | 
20 | TTCTGTATACACCATCC (sugars ldddldddddddldlll, PS) | 58 | 
21 | TTCTGTATACACCATCC (sugars lddldddddddddldll, PS) | 57 | 
22 | TTCTGTATACACCATCCC (sugars ldlddddddddddlddll, PS) | 63 | 

Row | Sequence | target mRNA inhibition (SNHG14; 7.5 µM) [%] | also measured
23 | TTCTGTTTCCATTTACA (sugars l4 d11 l2, PS) |  | target mRNA inhibition (SNHG14; 0.2 µM): 43%; target mRNA inhibition (SNHG14; 1 µM): 39%
24 | TTGATTCAATTCCCTT (sugars l2 d10 l4, PS) |  | target mRNA inhibition (SNHG14; 0.2 µM): 67%; target mRNA inhibition (SNHG14; 1 µM): 72%
25 | TTGATTCAATTCCCTTA (sugars l1 d2 l1 d9 l4, PS) | 69 | 
26 | TTGATTCAATTCCCTTA (sugars l2 d9 l1 d3 l2, PS) | 60 | 
27 | TTGATTCAATTCCCTTA (sugars ldddlddddddldldll, PS) | 48 | 
28 | TTGATTCAATTCCCTTA (sugars ldldlddddddddldll, PS) | 59 | 
29 | TTGCTTCCAATTTATTT (sugars l4 d11 l2, PS) |  | target mRNA inhibition (SNHG14; 0.2 µM): 25%; target mRNA inhibition (SNHG14; 1 µM): 44%
30 | TTTACACTTAATTATACT (sugars l2 d12 l4, PS) |  | target mRNA inhibition (SNHG14; 0.2 µM): 7%; target mRNA inhibition (SNHG14; 1 µM): 6%
31 | TTTACACTTAATTATACTTC (sugars l6 d7 l1 d4 l2, PS) | 58 | 
32 | TTTACTCTGCAATACAC (sugars l3 d11 l3, PS) |  | target mRNA inhibition (SNHG14; 0.2 µM): 41%; target mRNA inhibition (SNHG14; 1 µM): 56%
33 | TTTACTGTCAACTCCT (sugars l2 d10 l4, PS) |  | target mRNA inhibition (SNHG14; 0.2 µM): 51%; target mRNA inhibition (SNHG14; 1 µM): 57%
34 | TTTATACCTTTCTTTAACCC (sugars l1 d12 l1 d4 l2, PS) | 17 | 
35 | TTTATACCTTTCTTTAACCC (sugars l1 d14 l2 d1 l2, PS) | 63 | 
36 | TTTATACCTTTCTTTAACCC (sugars l2 d1 l1 d14 l2, PS) | 50 | 
37 | TTTATACCTTTCTTTAACCC (sugars lddldddddddddlddddll, PS) | 53 | 
38 | TTTATCAATATCTTCTCA (sugars l3 d2 l1 d9 l3, PS) | 65 | 
39 | TTTATCAATATCTTCTCA (sugars l4 d10 l1 d1 l2, PS) | 69 | 
40 | TTTATCAATATCTTCTCA (sugars lllldldddddddlddll, PS) | 62 | 
41 | TTTATCAATATCTTCTCAC (sugars l1 d12 l2 d1 l3, PS) | 60 | 
42 | TTTATCAATATCTTCTCAC (sugars l4 d12 l3, PS) | 70 | 
43 | TTTATCAATATCTTCTCAC (sugars lddlllddddddddlddll, PS) | 63 | 
44 | TTTATCAATATCTTCTCAC (sugars ldlddlddddddldddlll, PS) | 61 | 

Row | Sequence | target mRNA inhibition (SNHG14; 7.5 µM) [%] | also measured
45 | TTTATCAATATCTTCTCAC (sugars lllddldddddddllddll, PS) | 54 | 
46 | TTTATCAATATCTTCTCACT (sugars ldddddddddddddldldll, PS) | 53 | 
47 | TTTATCAATATCTTCTCACT (sugars lddddlddddddddddldll, PS) | 68 | 
48 | TTTATCAATATCTTCTCACT (sugars ldldddddddddddldddll, PS) | 39 | 
49 | TTTCCATTTATTTCCATTT (sugars l2 d2 l2 d11 l2, PS) | 59 | 
50 | TTTCCATTTATTTCCATTT (sugars l4 d13 l2, PS) |  | target mRNA inhibition (SNHG14; 0.2 µM): 47%; target mRNA inhibition (SNHG14; 1 µM): 56%
51 | TTTCCATTTATTTCCATTT (sugars lldlddddddddddlldll, PS) | 53 | 
52 | TTTCCTCTGCTTATAAC (sugars l4 d11 l2, PS) |  | target mRNA inhibition (SNHG14; 0.2 µM): 34%; target mRNA inhibition (SNHG14; 1 µM): 56%
53 | TTTCTGACTCCCTATCC (sugars l2 d13 l2, PS) |  | target mRNA inhibition (SNHG14; 0.2 µM): 25%; target mRNA inhibition (SNHG14; 1 µM): 14%
54 | TTTTAACCAGAGTGGCAT (sugars l4 d11 l3, PS) | 56 | 
55 | TTTTAACCAGAGTGGCATCC (sugars l2 d16 l2, PS) | 59 | 
56 | TTTTATACCTTTCTTTAACC (sugars l1 d1 l2 d14 l2, PS) | 57 | 
57 | TTTTATACCTTTCTTTAACC (sugars l1 d5 l1 d10 l3, PS) | 38 | 
58 | TTTTATACCTTTCTTTAACC (sugars l1 d14 l1 d2 l2, PS) | 21 | 
59 | TTTTATACCTTTCTTTAACC (sugars ldlddddddddddlldddll, PS) | 53 | 
60 | TTTTATACCTTTCTTTAACC (sugars llddddldddddddldddll, PS) | 51 | 
61 | TTTTATACCTTTCTTTAACC (sugars llldddddddddddldldll, PS) | 65 | 
62 | TTTTTATACCTTTCTTTAAC (sugars ldllddddddddddlldlll, PS) | 57 | 
63 | TTTTTTCTTACTATCTTCAA (sugars lldldddddddddddldlll, PS) | 51 | 
64 | TTTTTTCTTACTATCTTCAA (sugars llldddlddddddddlddll, PS) | 58 | 
65 | TTTTTTTCTTACTATCTTCA (sugars lddddddddddddldlddll, PS) | 55 | 
